Consider six compounds from US20070225255A1, “Use of Mitochondrially Targeted Antioxidant in the Treatment of Liver Diseases and Epithelial Cancers” (priority 2004, published 2007).

The conditions of data set [1]: fed to mice on a long term basis; cited from earlier work.
Data set [2] concerns choline deficient diet fed rats. As to conditions: cited from earlier work.
The next data set relates to hepatoma cell lines. Briefly: DDC intoxication of hepatoma cell lines. The data set is classed as cell-based. Particulars: hepatoma cell lines incubated for up to 72 hours in DMEM and 10% FCS. Here is the method: The hepatoma cell lines incubated for up to 72 hours in culture medium (DMEM and 10% FCS, Gibco) supplemented with DDC (EC50=50 μg/ml of medium) or with up to 100 μM BSO are another suitable in vitro model mimicking observations made in patients suffering from the diseases according to the invention.

The test system of data set [3] is human cell lines intoxicated with DDC or BSO. Kind of data set: ROS formation in cell lines intoxicated with DDC or BSO. The format is cell-based. Particulars: simultaneous treatment at concentrations corresponding to EC50.
Description: Another simple set of experiments employing hepatoma cell lines (e.g. HepG2 or Hep3B), the SNU-398 hepatocellular carcinoma-derived cell line (ATCC No. CRL-2233, LGC Promochem, Germany), the HUH-7 human carcinoma-derived cell line (Japanese collection of Research Biosources JCRB 0403) or the Tib-73 mouse embryonic liver cell line (ATCC TIB 73=BNL CL2 derived from BAL/c mouse, MD, USA) allows measurement of ROS production in these cells upon DDC intoxication.
To determine ROS production in for example hepatoma cell lines a standard experimental protocol according to Example 8 is applied. Tested hepatoma cells are grown in 96-well plates in culture medium (DMEM supplemented with 10% FCS, Gibco) to 80% confluency, subsequently washed with HBSS and incubated in the dark with DHE (10-50 μM) for 10 minutes at 37° C. Cells are then washed twice with Hank's balanced salt solution (HBSS, Gibco) to remove excess dye. Fluorescence is monitored in a fluorescence microscope (Olympus, Hamburg, Germany).
Alternatively, the generation of ROS is measured by using the fluoroprobe 5-(and-6)-chloromethyl-2′,7′-dichlorodihydrofluorescein diacetate acetyl ester (CM-H2DCFDA, Molecular Probes, Goettingen, Germany) which is converted to fluorescent dichlorofluorescien (DCF; Djordjevic T. et al., 2004, Antioxidants & Redox Signaling, 6: 713-720). To determine DCF fluorescence in a microplate reader (Tecan, Crailsheim, Germany), cells (e.g. HepG2, Hep3B or SNU-398) are grown in 96-well plates to 80% confluency. […] After several washes with HBSS to remove excess dye, fluorescence is monitored by using 480 nm excitation and 540 nm emission wavelength. DCF fluorescence is standardized to the number of viable cells using the Alamar Blue test according to the manufacturer's instructions (Biosource, Nivelles, Belgium). […] The absorbance is then measured at the wavelength of 580 μm.
The conditions of data set [4]: intraperitoneal or i.v. (tail vein) injections, mice; cited from earlier work.
The conditions of data set [5]: according to Jauslin M. L. et al., 2003, FASEB J.; cited from earlier work.
Data set [6] concerns mitochondria within isolated cells. Particulars: in vitro; cited from earlier work.
For data set [7] the following is noted: fed in drinking water for 3 to 7 days, 500 μM or 1 mM (MitoVit E 500 μM); cited from earlier work.
In data set [8] the test system is DDC- or GF intoxicated mice. Briefly: Toxic memory effect upon reintoxication with DDC or GF after recovery. The format is in vivo, mouse. Particulars: 10 weeks DDC or GF, 4 weeks recovery, reexposure 24 to 72 hours with simultaneous treatment. From the text:
Mouse livers respond to DDC- or GF intoxication first with ballooning of hepatocytes and formation of a denser keratin IF network. After around 6 weeks of intoxication, ballooned hepatocytes show a reduced density of the keratin IF and early MBs can be observed as fine granules associated with the keratin IF network. Continuation of intoxication leads to the appearance of large MBs typically located in the perinuclear cytoplasmic region. […] Upon cessation of intoxication, MBs disappear within several weeks. At 4 weeks of recovery from intoxication, there are groups of hepatocytes devoid of cytoplasmic keratin filaments but still containing small remnants of MBs at the cell periphery in association with desmosomes. If such mice are reexposed to DDC or GF numerous MBs reappear within 24 to 72 hours (Stumptner C. et al., 2001, J. Hepatol., 34: 665-675). This enhanced formation of MBs upon reintoxication was interpreted—in analogy to allergic reactions—as a toxic memory effect.
In another set of experiments, 10 week-intoxication of mice with DDC or GF is followed by 4 weeks of recovery.

Data set [9] concerns human epithelial cell cancer xenografts. Briefly: Nude mice tumor xenografts. The data set is classed as in vivo, mouse. Here is the method:
Tumor cell lines or primary tumors that are xenografted subcutaneously according to standard methods (Li K. et al., 2003, Cancer Res., 63(13): 3593-3597) include colon adenocarcinomas, invasive ductal carcinomas of the breast, small and non-small cell lung carcinoma, prostate tumors, pancreatic tumors and stomach tumors.
Tumor-derived cell lines (grown in DMEM/10% FBS) are harvested in log-phase growth, washed twice with PBS, resuspended in 1 ml PBS (2.5×10^7 cells/ml), and injected subcutaneously into the right flank of a nude mouse (Hsd: athymic nu/nu, Harlan Winkelmann; aged between 5 and 6 weeks) at 5×10^6 cells/mouse (0.2 ml). Tumor growth is monitored every other day for the indicated periods (depending on the cell type). Tumor size is determined by the product of two perpendicular diameters and the height above the skin surface.

In data set [10] the test system is patients having liver cirrhosis and a history of hepatitis C virus (HCV) infection. As to conditions: patients with liver cirrhosis and HCV history (VitE group); cited from earlier work.

One may read the EC50 as the concentration needed to bring the measured effect to its halfway point.

On to `C[P+](c1ccccc1)(c1ccccc1)c1ccccc1` [TPMP, reference compound], for which, in data set [1], the safety of feeding entry is given as “fed safely”.

In the case of vitamin E, the “development of fatty liver and oxidative stress” value in data set [2] was “neither prevented the development of fatty liver nor reduced the oxidative stress”.

With `CCOC(=O)C1=C(C)NC(C)=C(C(=O)OCC)C1C` [DDC], in the data set on hepatoma cell lines, the 50% effective concentration (EC50) is 50 μg/ml of medium.

As to `Cc1c(C)c2c(c(C)c1O)CCC(C)(CC[P+](c1ccccc1)(c1ccccc1)c1ccccc1)O2` (stereo not drawn) [MitoVit E, [2-(3,4-dihydro-6-hydroxy-2,5,7,8-tetramethyl-2H-1-benzopyran-2-yl)ethyl]-triphenylphosphonium bromide], the ROS formation entry in data set [3] is on record as “significant reduction in ROS formation”. In data set [4], the maximum tolerated dose is recorded as 6 mg/kg/day. Also, the 50% effective concentration (EC50) in data set [5] was 416 nM. Also, in data set [1], the “concentrations within the brain, heart, liver, and muscle” value was “potentially therapeutically effective concentrations”; the safety of feeding result is given as “fed safely”. Also, in data set [6], the accumulation by mitochondria result was “rapidly and selectively accumulated by mitochondria”. In addition, in [7], the “gross signs of toxicity” value was “without any gross signs of toxicity”. For the same compound, the “toxic memory effect (reappearance of MBs)” value in [8] is “reduced or abolished”.

With `COc1c(O)c(C)c(CCCCCCCCCC[P+](c2ccccc2)(c2ccccc2)c2ccccc2)c(O)c1OC.CS(=O)(=O)[O-]` [MitoS], the ROS formation result in data set [3] is given as “significant reduction in ROS formation”. Also, in [9], the growth of tumors result was “reduced growth of tumors”, the “necrosis of the tumors” value is “increased necrosis of the tumors” and the “vascularization of the tumor xenografts” value is on record as “decreased vascularization”. Moreover, the “gross signs of toxicity” value in [7] is given as “without any gross signs of toxicity”. The “toxic memory effect (reappearance of MBs)” value in data set [8] was “reduced or abolished”.

For the compound `Cc1c(C)c2c(c(C)c1O)CC[C@@](C)(CCC[C@H](C)CCC[C@H](C)CCCC(C)C)O2` [alpha-tocopherol], the “liver function, hepatocarcinogenesis, cumulative survival” value in data set [10] is recorded as “neither improvement of liver function, suppression of hepatocarcinogenesis, nor improvement of cumulative survival”.
